System: Adult rat DRG neurons
Assay: Measurement of gene expression in adult DRG neurons by real-time PCR
Type: cell-based
Protocol: Dorsal root ganglia were dissected from adult (3-6 months old) Sprague-Dawley rats, and dissociated and cultured by standard techniques (Lindsay, 1988). Briefly, ganglia were stripped of their sheaths, and incubated in 0.125% collagenase type IV (Worthington) in Ham's F12 with 10% HIHS for two 90 minute periods at 37° C. They were then washed extensively and incubated in 0.25% trypsin (Worthington) in HBSS at 37 degrees for 30 minutes. After inactivation of trypsin with 10% heat inactivated horse serum and further washing, the ganglia were dissociated by gentle trituration through a flame polished Pasteur pipet.
Neurons were plated on polyornithine and laminin coated 96-well plates in defined serum free medium consisting of Hams F-14 nutrient mixture with plus 2 mM glutamine, 0.35% bovine serum albumin (Albumax II, Gibco-BRL or Pathocyte-5, ICN), 60 ng/ml progesterone, 16 ug/ml putrescine, 400 ng/ml L-thyroxine, 38 ng/ml sodium selenite, 340 ng/ml tri-iodo-thyronine, 60 ug/ml penicillin and 100 ug/ml streptomycin (Sigma) (Davies et al., 1993). NGF (10 ng/ml) and test compounds were added to the wells shortly before or after plating as described below.
Adult rat DRG neurons were plated in 96 well plates, exposed to different concentrations of NGF for 120 hours and specific mRNA expression was analysed using the Stratagene Mx4000 real time PCR instrument. These conditions allow detection of greater than 15-fold increase in substance P mRNA content relative to GAPDH mRNA at the highest concentration of NGF used (FIG. 1). In addition, it was shown that a greater than 3-fold reduction in galanin mRNA level relative to GAPDH mRNA at the highest concentration of NGF can be measured (FIG. 1).
After culture as described above for 5 days RNA was extracted and the ratio of substance P mRNA expression determined relative to GAPDH mRNA for RNA from each of the culture wells by RT-PCR. RT-PCR was also performed to determine the ratio of galanin to GAPDH mRNA for each RNA sample. […]

NGF: nerve growth factor, the first neurotrophin identified; acts through TrkA and p75 receptors
reduction in galanin mRNA level relative to GAPDH mRNA (highest concentration of NGF (range up to 50 ng/ml), 120 hours exposure, relative to cultures with no added NGF (FIG. 1)): greater than 3 fold | increase in substance P mRNA content relative to GAPDH mRNA (highest concentration of NGF used (range up to 50 ng/ml), 120 hours exposure, 96 well plates, relative to cultures with no added NGF (FIG. 1)): greater than 15 fold | combined difference in gene expression (substance P and galanin combined in a single assay) in the absence or presence of NGF (substance P mRNA relative to galanin mRNA, 120 hours exposure (FIG. 1)): approximately 50 fold
